Test results reported in ChEMBL document CHEMBL3797040, “Withanolides derived from Physalis peruviana (Poha) with potential anti-inflammatory activity” (Bioorg Med Chem Lett, 2016).

How the values were obtained:
[1] = system: RAW264.7; test: Inhibition of lipopolysaccharide-induced nitric oxide production in mouse RAW264.7 cells pre-incubated for 30 mins before LPS stimulation for 20 hrs by Griess reagent based assay; format: functional, cell-based
[2] = system: HEK293; test: Inhibition of TNFalpha-activated nuclear factor-kappa B activity (unknown origin) expressed in HEK293 cells at 50 uM incubated for 6 hrs by luciferase reporter gene based assay; format: cell-based; settings: Homo sapiens
[3] = Toxicity against mouse RAW264.7 cells assessed as cell survival at 50 uM by SRB assay; format: cell-based; settings: read-out: Survival
[4] = system: RAW264.7; test: Inhibition of lipopolysaccharide-induced nitric oxide production in mouse RAW264.7 cells at 50 uM pre-incubated for 30 mins before LPS stimulation for 20 hrs by Griess reagent based assay; format: functional
[5] = Toxicity against HEK293 cells assessed as cell survival at 50 uM; format: cell-based; settings: human, read-out: Survival
[6] = Inhibition of TNFalpha-activated nuclear factor-kappa B activity (unknown origin) expressed in HEK293 cells incubated for 6 hrs by luciferase reporter gene based assay; format: cell-based; settings: Homo sapiens, HEK293, 6 h

Structure (SMILES) | IC50 [1] [µM] | inhibition [2] [%] | viability at 50 µM [3] [%] | inhibition at 50 µM [4] [%] | viability at 50 µM [5] [%] | IC50 [6] [µM]
CC1=C(C)C(=O)O[C@@H]([C@](C)(O)C2=CC[C@@]3(O)[C@@H]4C[C@H]5O[C@]56[C@@H](O)CCC(=O)[C@]6(C)[C@H]4CC[C@]23C)C1 | 14.6 | 43.7 | 100 | 64.7 | 81.9 | –
CC1=C(C)C(=O)O[C@@H]([C@](C)(O)[C@]2(O)CC[C@@]3(O)[C@@H]4[C@@H](O)[C@@H](O)[C@@]5(O)CC=CC(=O)[C@]5(C)[C@H]4CC[C@]23C)C1 | 44.6 | 66.9 | 90.4 | 58.3 | 98.4 | 24.6
CC1=C(C)C(=O)O[C@@H]([C@@](C)(O)[C@]2(O)CC[C@@]3(O)[C@@H]4C[C@@H](O)[C@@]5(O)CC=CC(=O)[C@]5(C)[C@H]4CC[C@]23C)C1 | – | 65.8 | 84.1 | 26.4 | 89.6 | 31.2
CC(=O)OC1C[C@H](O)CC2=CC[C@H]3[C@@H]4CC[C@H]([C@@](C)(O)[C@@H](O)C[C@@H]5COC(=O)[C@@H]5C)[C@@]4(C)CC[C@@H]3[C@]21C (some centres undefined) | 11.8 | 56.1 | 95.3 | 84.2 | 36.5 | 1.1
CC1=C(CO)C[C@H]([C@](C)(O)[C@]2(O)CC[C@@]3(O)[C@@H]4C[C@@H](O)[C@@]5(O)CC=CC(=O)[C@]5(C)[C@H]4CC[C@]23C)OC1=O | – | 41 | 100 | 7.4 | 81.6 | –
CC1=C(C)C(=O)O[C@@H]([C@](C)(O)[C@]2(O)CC[C@@]3(O)[C@@H]4C[C@H]5O[C@]56[C@@H](O)C=CC(=O)[C@]6(C)[C@H]4CC[C@]23C)C1 | 0.32 | 99.5 | 50.1 | 99.4 | 88.6 | 0.04
CC(=O)OC1C[C@H](O)CC2=CC[C@H]3[C@@H]4CC[C@H]([C@@](C)(O)[C@@H](O)C[C@@H]5COC(=O)[C@@]5(C)O)[C@@]4(C)CC[C@@H]3[C@]21C (some centres undefined) | – | 64.4 | 100 | 3.7 | 73.3 | 2.1
CC1=C(C)C(=O)O[C@@H]([C@](C)(O)[C@]2(O)CC[C@@]3(O)[C@@H]4C[C@H](O)C5=CC=CC(=O)[C@]5(C)[C@H]4CC[C@]23C)C1 | 2.4 | 85 | 79.3 | 99.2 | 100 | 5.6
CC1=C(C)C(=O)O[C@@H]([C@](C)(O)[C@]2(O)CC[C@@]3(O)[C@@H]4C[C@H]5O[C@]56[C@@H](O)[C@@H](O)CC(=O)[C@]6(C)[C@H]4CC[C@]23C)C1 | 7.8 | 54.1 | 100 | 86 | 97.1 | –
CC1=C(C)C(=O)O[C@@H]([C@](C)(O)[C@]2(O)C[C@H](O)[C@@]3(O)[C@@H]4C[C@H](O)[C@@]5(O)CCCC(=O)[C@]5(C)[C@H]4CC[C@@]32C)C1 | – | 60.4 | 100 | 47.7 | 83.9 | 10.4
CNC(=N)NCCC[C@H](N)C(=O)O [TILARGININE] | 23.5 | – | – | – | – | –
